Assays:
[1] = target: T1, rabbit TPI (purified from muscle) (Oryctolagus cuniculus, UniProt P00939); test: TPI activity assay, PEP titration; Ki by Cheng-Prusoff equation; type: biochemical
T1 construct: gene TPI1; native enzyme purified from rabbit muscle; homodimer

[2] = target: T1, rabbit TPI (purified from muscle); test: TPI activity assay, PEP titration; type: biochemical
Excerpt: TPI activity assay, PEP titration on rabbit TPI (purified from muscle) | IC50 values and the inhibitory constant Ki are given in μM

yeast TPI (endogenous) [3] = target: T2, yeast TPI (endogenous) (Saccharomyces cerevisiae, UniProt P00942); test: TPI activity assay, PEP titration; type: cell-based; settings: substrate gly3p, yeast extract
T2 construct: gene TPI1; endogenous full-length enzyme in yeast extract, activity normalized to total cellular protein; homodimer
T2 sequence (P00942 2-248): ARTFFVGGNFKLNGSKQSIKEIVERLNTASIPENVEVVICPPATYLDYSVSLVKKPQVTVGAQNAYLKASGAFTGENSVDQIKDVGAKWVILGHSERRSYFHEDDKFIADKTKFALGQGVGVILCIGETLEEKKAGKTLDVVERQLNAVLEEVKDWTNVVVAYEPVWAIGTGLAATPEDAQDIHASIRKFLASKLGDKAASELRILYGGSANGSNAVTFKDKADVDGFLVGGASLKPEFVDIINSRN
Excerpt: TPI activity assay, PEP titration on yeast TPI (endogenous) | IC50 values and the inhibitory constant Ki are given in μM

[4] = target: T3, human TPI (expressed in yeast) (Homo sapiens, UniProt P60174); test: TPI activity assay, PEP titration; Ki by Cheng-Prusoff equation; type: biochemical
T3 construct: gene TPI1; human TPI expressed in transgenic yeast lacking endogenous TPI1; extract, activity normalized to total cellular protein; homodimer

[5] = target: T3, human TPI (expressed in yeast); test: TPI activity assay, PEP titration; type: cell-based
Excerpt: TPI activity assay, PEP titration on human TPI (expressed in yeast) | IC50 values and the inhibitory constant Ki are given in μM

yeast TPI (endogenous) [6] = target: T2, yeast TPI (endogenous); test: TPI activity assay, PEP titration; Ki by Cheng-Prusoff equation; type: biochemical; settings: substrate gly3p, yeast extract
yeast TPI (endogenous) [7] = target: T2, yeast TPI (endogenous); test: TPI activity assay, Michaelis-Menten kinetics; type: biochemical; settings: yeast extract, no PEP

T1 sequence (P00939 2-249): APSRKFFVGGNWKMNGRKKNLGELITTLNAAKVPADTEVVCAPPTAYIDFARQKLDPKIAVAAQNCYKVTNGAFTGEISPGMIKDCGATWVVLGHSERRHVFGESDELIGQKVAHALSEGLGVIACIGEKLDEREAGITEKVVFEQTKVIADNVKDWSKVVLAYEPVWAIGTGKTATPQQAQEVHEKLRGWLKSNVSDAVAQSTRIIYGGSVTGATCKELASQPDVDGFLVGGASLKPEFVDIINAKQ
T3 sequence (P60174 2-249): as the sequence (P00939 2-249) above, with K19Q, N20S, T26G, S118A counted along it

| SMILES | Ki [1] | IC50 [2] | IC50 (yeast TPI (endogenous) [3]) | Ki [4] | IC50 [5] | Ki (yeast TPI (endogenous) [6]) | Km (yeast TPI (endogenous) [7]) |
| --- | --- | --- | --- | --- | --- | --- | --- |
| C=C(OP(=O)(O)O)C(=O)O [PEP] | 156 µM | 515 µM | 1130 µM | 163 µM | 531 µM | 392 µM | – |
| O=C[C@H](O)COP(=O)(O)O [gly3p] | – | – | – | – | – | – | 854 µM |
